Measurements: patent US20250367193A1, “BIFUNCTIONAL COMPOUNDS CONTAINING SUBSTITUTED PYRIMIDINE DERIVATIVES FOR DEGRADING CYCLIN-DEPENDENT KINASE 2 VIA UBIQUITIN PROTEASOME PATHWAY” (NIKANG THERAPEUTICS, INC., priority 2022, published 2025)
pIC50: −log10 of the molar value.

target: T1, CDK2 (Homo sapiens, UniProt P24941); experiment: Inhibition of CDK2: phospho-Rb (S807/811) HTRF measurement in cells; assay type: cell-based; settings: OVCAR3 cells (CDK2 dependent cell line), 24 h compound treatment, read-out: pRb
T1 construct: High-Throughput Measurement of Cellular Endogenous CDK2; endogenous in cells; host or cells: OVCAR3
Method: Phosphorylation of RB protein at S807/811 are measured using HTRF phospho-RB cellular kits (Cat #64RBS807PEG) from Cisbio.
On Day 1, OVCAR3 (CDK2 dependent cell line) cells are seeded into 96-well tissue-culture treated plates at 20,000 cells/well in 200 μL and incubated overnight at 37° C. in CO2 atmosphere. On Day 2, the cells are treated with test compounds at concentrations from 0.3 to 10,000 nM using HP D300 digital dispenser. Twenty-four hours after compound treatment, cell culture media is removed by flicking the plate and tapping the plate against clean paper towel. Immediately 30 μL 1× lysis buffer is supplemented from the kit and the plate is incubated at room temperature on shaker for 30 min. After homogenization by pipetting up and down, 8 μL cell lysate from 96-well cell culture plate is transferred to 384-well small volume white detection plate. 2 μL premixed detection solution is added and the plate was covered with sealer. To prepare the detection solution, d2 conjugated-phospho-RB antibody and Eu-cryptate conjugated phosphor-RB antibody are diluted into detection buffer following manufacturer's instruction. Detection plates are incubated for 4 h at room temperature and read on ClarioStar (BMG Labtech) in TR-FRET mode ([…]). The TR-FRET ratio (665 nM/620 nM) is plotted against the compound concentration and normalized to DMSO controls. Half maximal inhibition concentration (IC50) values are calculated with a four-parameter logistic fit using GraphPad Prism (version 8; La Jolla, CA).

| pIC50 | Structure (SMILES) |
| --- | --- |
| 6.30 to 7.00 | Cn1nc(N2CCC(=O)NC2=O)c2ccc(C3CCN(Cc4cccc(S(=O)(=O)N5CCC(Nc6ncc(C(F)(F)F)c(N7CCCC7)n6)CC5)c4)CC3)cc21 [Cpd 4, 1-(1-methyl-6-(1-(3-((4-((4-(pyrrolidin-1-yl)-5-(trifluoromethyl)pyrimidin-2-yl)amino)-piperidin-1-yl)sulfonyl)benzyl)piperidin-4-yl)-1H-indazol-3-yl)dihydropyrimidine-2,4(1H,3H)-dione] |
| 6.30 to 7.00 | Cn1nc(N2CCC(=O)NC2=O)c2ccc(C3CCN(CC4CCN(S(=O)(=O)c5ccc(Nc6ncc(C(F)(F)F)c(O[C@H]7CCC[C@H]7O)n6)cc5)CC4)CC3)cc21 (racemic) [compound 6, Rac-1-(6-(1-((1-((4-((4-(((1S,2R)-2-hydroxy-cyclopentyl)oxy)-5-(trifluoromethyl)-pyrimidin-2-yl)amino)phenyl)-sulfonyl)-piperidin-4-yl)methyl)piperidin-4-yl)-1-methyl-1H-indazol-3-yl)dihydropyrimidine-2,4(1H,3H)-dione] |
| 6.30 to 7.00 | Cn1nc(N2CCC(=O)NC2=O)c2ccc(C3CCN(Cc4cccc(S(=O)(=O)N5CCC(Nc6ncc(C(F)(F)F)c(N7CCCCC7)n6)CC5)c4)CC3)cc21 [Cpd 1, 1-(1-methyl-6-(1-(3-((4-((4-(piperidin-1-yl)-5-(trifluoromethyl)pyrimidin-2-yl)amino)-piperidin-1-yl)sulfonyl)benzyl)-piperidin-4-yl)-1H-indazol-3-yl)dihydropyrimidine-2,4(1H,3H)-dione] |
| 7.00 to 7.55 | Cn1nc(N2CCC(=O)NC2=O)c2ccc(C3CCN(Cc4cccc(S(=O)(=O)N5CCC(Nc6ncc(C(F)(F)F)c(OC7CCCC7)n6)CC5)c4)CC3)cc21 [Cpd 2, 1-(6-(1-(3-((4-((4-(cyclopentyloxy)-5-(trifluoromethyl)pyrimidin-2-yl)amino)-piperidin-1-yl)sulfonyl)benzyl)-piperidin-4-yl)-1-methyl-1H-indazol-3-yl)dihydro-pyrimidine-2,4(1H,3H)-dione] |
| 7.00 to 7.55 | Cn1nc(N2CCC(=O)NC2=O)c2ccc(C3CCN(Cc4cccc(S(=O)(=O)N5CCC(Nc6ncc(C(F)(F)F)c(O[C@@H]7CCC[C@@H]7O)n6)CC5)c4)CC3)cc21 (racemic) [Cpd 3, Rac-1-(6-(1-(3-((4-((4-(((1R,2S)-2-hydroxy-cyclopentyl)oxy)-5-(trifluoro-methyl)-pyrimidin-2-yl)amino)piperidin-1-yl)-sulfonyl)benzyl)piperidin-4-yl)-1-methyl-1H-indazol-3-yl)dihydropyrimidine-2,4(1H,3H)-dione] |

| Structure (SMILES) | pIC50 |
| --- | --- |
| Cn1nc(N2CCC(=O)NC2=O)c2ccc(C3CCN(Cc4cccc(S(=O)(=O)N5CCC(Nc6ncc(C(F)(F)F)c(OC7CCC7)n6)CC5)c4)CC3)cc21 [Cpd 5, 1-(6-(1-(3-((4-((4-cyclobutoxy-5-(trifluoro-methyl)pyrimidin-2-yl)amino)piperidin-1-yl)sulfonyl)benzyl)piperidin-4-yl)-1-methyl-1H-indazol-3-yl)dihydropyrimidine-2,4(1H,3H)-dione] | 7.00 to 7.55 |
